# Results: US11679107B2 (Eisai R&D Management Co., Ltd., priority 2018, dated 2023)
# Where two headings read alike, the source gives them in different places.
# Legend:
# SF3b complexes = target: T1, SF3b complexes (Homo sapiens, UniProt O75533+Q7RTV0); assay: Scintillation proximity assay (SPA) with [3H]-labelled pladienolide probe; assay type: binding; conditions: SF3B1 (WT); geometric mean; read-out: SPA-ATS GMean IC50 (nM) SF3B1 (WT)
# T1 construct: endogenous in cells; host or cells: Nuclear extracts; A HeLa S3 extract preparation is described for the in vitro splicing assay
# How it was run: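 SF3b complexes captured from nuclear extracts on anti-SF3B1 antibody SPA beads; test compounds pre-incubated 30 min before 2.5 nM [3H]-pladienolide probe added, then 30 min incubation. Bound probe read by scintillation; values from non-linear regression of concentration–response curves.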
# [1] = test system: NCI-H1568 cells (high MCL1); assay: Cell proliferation and viability, CellTiter-Glo, 72 hours; assay type: cell-based; conditions: for GI50: geometric mean
# How it was run: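 RPMI-1640/10% FBS (Panc: + insulin, FBS 15%); 11-pt half-log dose, ~10 μM-100 pM, 0.1% DMSO; 37° C, 5% CO2; ATP luminescence read; % inhibition vs T0 and vehicle, −100% cidal to 100% uninhibited growth.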
# [2] = test system: Ad2 variant pre-mRNAs spliced in HeLa S3 nuclear extracts; assay: In vitro splicing assay (IVS), RT-qPCR of spliced product; assay type: biochemical; conditions: for IC50: geometric mean; for Ratio Ad2.1/2.2: ratio of IVS IC50 Ad2.1 to Ad2.2
# How it was run: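 Read-out is one-step TaqMan RT-qPCR of spliced Ad2 mRNA with Ftz as reference, normalized to DMSO and fit by non-linear regression. Reactions held HeLa S3 nuclear extract, 2 ng Ad2-derived pre-mRNA and test compound, with 15 min preincubation. Splicing was started with ATP-containing activation buffer and run 90 min at 30 °C.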
# [3] = 72 h, NCIH1568.1, -100% = cidal, 0% = static, 100% = uninhibited growth
# [4] = NCI-H1568, 72 h, read-out: CTGlo-ATS GMean GI50 (nM) 72 h NCIH1568.1, 72 h, NCIH1568.1
# [5] = Ad2.1 pre-mRNA substrate, read-out: qPCR-IVS-ATS GMean IC50 (nM) Ad2.1
# [6] = Ad2.2 pre-mRNA substrate, read-out: qPCR-IVS-ATS GMean IC50 (nM) Ad2.2
# [7] = NCI-H1568, read-out: CTGlo-ATS GMean GI50 (nM) 72 h NCIH1568.1, NCIH1568.1 cells, 72 h
# [8] = NCIH1568.1 cells, 72 h, −100% cidal, 0% static, 100% maximal growth
# [9] = NCI-H1568, read-out: CTGlo-ATS GMean GI50 (nM) 72 h NCIH1568.1, 72 h, NCIH1568.1
# [10] = NCI-H1568, 72 h, read-out: CTGlo-ATS GMean GI50 (nM) 72 h NCIH1568.1, NCIH1568.1 cells, 72 h
SMILES,IC50 (SF3b complexes),"CTGlo-ATS Mean MinResponse % 72 h NCIH1568.1 [1, 3]","GI50 [1, 4]","IC50 [2, 5]","IC50 [2, 6]",Ratio Ad2.1/2.2 [2],"GI50 [1, 7]","CTGlo-ATS Mean MinResponse % 72 h NCIH1568.1 [1, 8]","GI50 [1, 9]","GI50 [1, 10]"
"C/C(=C\c1cc(F)cc(N2CCN(C(=O)Cn3cccn3)CC2)c1)[C@H]1OC(=O)C[C@H](O)CC[C@H](C)[C@@H](OC(=O)NCc2ccncc2)/C=C/[C@@H]1C [Compound 221, [(2S,3S,4E,6R,7S,10R)-2-[(E)-1-[3-fluoro-5-[4-(2-pyrazol-1-ylacetyl)piperazin-1-yl]phenyl]prop-1-en-2-yl]-10-hydroxy-3,7-dimethyl-12-oxo-1-oxacyclododec-4-en-6-yl] N-(pyridin-4-ylmethyl)carbamate]",9.33 nM,−66.213%,11.4 nM,9.6 nM,4.86 nM,1.973,,,,
C/C(=C\c1cc(F)c2nnn([C@H](C)CO)c2c1)[C@H]1OC(=O)C[C@H](O)CC[C@H](C)[C@@H](OC(=O)N2CCN(C)CC2)/C=C/[C@@H]1C [Compound 150],1.32 nM,,,8.58 nM,11 nM,,2.19 nM,−68.000%,,
C/C(=C\c1cc(F)cc(N(C)C2CCN(C(=O)NC(C)C)CC2)c1)[C@H]1OC(=O)C[C@H](O)CC[C@H](C)[C@@H](OC(=O)N2CCN(C)CC2)/C=C/[C@@H]1C [Compound 191],3.47 nM,,,11.6 nM,7.47 nM,,6.33 nM,−83.895%,,
"C/C(=C\c1cc(F)cc(N2CCN(C(=O)Cn3cccn3)CC2)c1)[C@H]1OC(=O)C[C@H](O)CC[C@H](C)[C@@H](OC(=O)N2CCN(C3CCCCCC3)CC2)/C=C/[C@@H]1C [Compound 236, [(2S,3S,4E,6R,7S,10R)-2-[(E)-1-[3-fluoro-5-[4-(2-pyrazol-1-ylacetyl)piperazin-1-yl]phenyl]prop-1-en-2-yl]-10-hydroxy-3,7-dimethyl-12-oxo-1-oxacyclododec-4-en-6-yl] 4-cycloheptylpiperazine-1-carboxylate]",84 nM,−90.096%,,49.9 nM,56.2 nM,0.889,,,9.92 nM,
COCC(=O)N1CCC(N(C)c2cc(F)cc(/C=C(\C)[C@H]3OC(=O)C[C@H](O)CC[C@H](C)[C@@H](OC(=O)N4CCN(C)CC4)/C=C/[C@@H]3C)c2)CC1 [Compound 179],6.15 nM,,,31.4 nM,14.2 nM,,8.7 nM,−82.684%,,
COCCn1cnc2c(F)cc(/C=C(\C)[C@H]3OC(=O)C[C@H](O)CC[C@H](C)[C@@H](OC(=O)N4CCN(C)CC4)/C=C/[C@@H]3C)cc21 [Compound 142],1.35 nM,,,12.9 nM,6.99 nM,,2.19 nM,−69.213%,,
C/C(=C\c1cc(F)c2cnn(C3CCN(S(C)(=O)=O)CC3)c2c1)[C@H]1OC(=O)C[C@H](O)CC[C@H](C)[C@@H](OC(=O)N2CCN(C)CC2)/C=C/[C@@H]1C [Compound 196],13.2 nM,−90.418%,,30 nM,19.6 nM,1.529,,,1.83 nM,
CC(=O)N1CCC(n2cnc3c(F)cc(/C=C(\C)[C@H]4OC(=O)C[C@H](O)CC[C@H](C)[C@@H](OC(=O)N5CCN(C)CC5)/C=C/[C@@H]4C)cc32)CC1 [Compound 146],22.7 nM,,,11.1 nM,12.7 nM,,,−88.975%,,2.79 nM
C/C(=C\c1cc(F)cc(N2CCN(C(=O)[C@@H](C)O)CC2)c1)[C@H]1OC(=O)C[C@H](O)CC[C@H](C)[C@@H](OC(=O)N2CCN(C)CC2)/C=C/[C@@H]1C [Compound 81],2.59 nM,,,9.07 nM,4.95 nM,,2.18 nM,−83.963%,,
"C/C(=C\c1cc(F)cc(N2CCN(C(=O)Cn3cccn3)CC2)c1)[C@H]1OC(=O)C[C@H](O)CC[C@H](C)[C@@H](OC(=O)N2CC[C@@H](F)C2)/C=C/[C@@H]1C [Compound 231, [(2S,3S,4E,6R,7S,10R)-2-[(E)-1-[3-fluoro-5-[4-(2-pyrazol-1-ylacetyl)piperazin-1-yl]phenyl]prop-1-en-2-yl]-10-hydroxy-3,7-dimethyl-12-oxo-1-oxacyclododec-4-en-6-yl] (3R)-3-fluoropyrrolidine-1-carboxylate]",26 nM,−59.209%,,513 nM,5.28 nM,97.051,,,22.7 nM,
"C/C(=C\c1cc(F)cc(N2CCN(C(=O)Cn3cccn3)CC2)c1)[C@H]1OC(=O)C[C@H](O)CC[C@H](C)[C@@H](OC(=O)N(C)C2CCN(C)CC2)/C=C/[C@@H]1C [Compound 233, [(2S,3S,4E,6R,7S,10R)-2-[(E)-1-[3-fluoro-5-[4-(2-pyrazol-1-ylacetyl)piperazin-1-yl]phenyl]prop-1-en-2-yl]-10-hydroxy-3,7-dimethyl-12-oxo-1-oxacyclododec-4-en-6-yl] N-methyl-N-(1-methylpiperidin-4-yl)carbamate]",2.46 nM,−87.288%,,5.87 nM,6.05 nM,0.971,,,1.98 nM,
C/C(=C\c1cc(F)cc(N2CCN(C(=O)C3COC3)CC2)c1)[C@H]1OC(=O)C[C@H](O)CC[C@H](C)[C@@H](OC(=O)N2CCN(C)CC2)/C=C/[C@@H]1C [Compound 153],4.83 nM,,,14.5 nM,14.8 nM,,2.34 nM,−81.206%,,
C/C(=C\c1cc(F)c2cnn(C3CCC(F)(F)CC3)c2c1)[C@H]1OC(=O)C[C@H](O)CC[C@H](C)[C@@H](OC(=O)N2CCN(C)CC2)/C=C/[C@@H]1C [Compound 195],69.3 nM,,,91.9 nM,58.3 nM,,6.59 nM,−95.559%,,
C/C(=C\c1cc(F)c2nnn([C@H]3CC[C@H](O)CC3)c2c1)[C@H]1OC(=O)C[C@H](O)CC[C@H](C)[C@@H](OC(=O)N2CCN(C)CC2)/C=C/[C@@H]1C [Compound 147],7.3 nM,,,9.57 nM,7.43 nM,,1.56 nM,−91.884%,,
"C/C(=C\c1cc(F)cc(N2CCN(C(=O)Cn3cccn3)CC2)c1)C1OC(=O)CC(O)CC[C@H](C)[C@@H](OC(=O)NC(C)CO)/C=C/C1C (stereo in doubt) [Compound 229, [(2R,3R,4E,6R,7S,10S)-2-[(E)-1-[3-fluoro-5-[4-(2-pyrazol-1-ylacetyl)piperazin-1-yl]phenyl]prop-1-en-2-yl]-10-hydroxy-3,7-dimethyl-12-oxo-1-oxacyclododec-4-en-6-yl] N-[(2S)-1-hydroxypropan-2-yl]carbamate]",17.1 nM,−65.653%,13.4 nM,329 nM,12.2 nM,27.000,,,,
C/C(=C\c1cc(F)cc(N2CCN(CC(=O)O)CC2)c1)[C@H]1OC(=O)C[C@H](O)CC[C@H](C)[C@@H](OC(=O)N2CCNCC2)/C=C/[C@@H]1C [Compound 264],35.7 nM,−21.716%,143 nM,33.4 nM,72.4 nM,0.461,,,,
"C/C(=C\c1cc(F)cc(N2CCN(C(=O)Cn3cccn3)CC2)c1)[C@H]1OC(=O)C[C@H](O)CC[C@H](C)[C@@H](OC(=O)N2CCN(Cc3cccnc3)CC2)/C=C/[C@@H]1C [Compound 252, [(2S,3S,4E,6R,7S,10R)-2-[(E)-1-[3-fluoro-5-[4-(2-pyrazol-1-ylacetyl)piperazin-1-yl]phenyl]prop-1-en-2-yl]-10-hydroxy-3,7-dimethyl-12-oxo-1-oxacyclododec-4-en-6-yl] 4-(pyridin-3-ylmethyl)piperazine-1-carboxylate]",21.8 nM,−76.109%,10.3 nM,22.6 nM,27.4 nM,0.825,,,,
C/C(=C\c1cc(F)cc(N2CCCN(CC3CC3)C2=O)c1)[C@H]1OC(=O)C[C@H](O)CC[C@H](C)[C@@H](OC(=O)N2CCN(C)CC2)/C=C/[C@@H]1C [Compound 80],1.59 nM,,,6.64 nM,8.57 nM,,,−69.196%,,2.68 nM
